Reference: patent US12674026B2, “Process for preparing polyol-based esters of acyl-capped hydroxy carboxylic acids” (KetoLipix Therapeutics GmbH, priority 2019, dated 2026)

What was measured:
pancreatin = test system: pancreatin
Protocol: Both media are from the company Biorelevant®, Ltd. in Great Britain. In addition, in some experiments porcine pancreas is added (Panzytrat® 40,000, Fa. Allergan).
The pancreatin is used in the form of the commercially available product Panzytrat® 40,000 from the Allergan company. The whole mixture is stirred on a hotplate at 50° C.; the course of the reaction is determined and followed by continuous recording of the acid number over time.

[1] = even if several grams are taken; cited from earlier work

cleavage by pancreatin (pancreatin)	Compound	duration of ketosis [1]
cleaved by pancreatin	3-acetylacetobutyric acid di-diglycerol ester [3-acetylaceto-BHB di-diglycerol ester]	
cleaved by pancreatin	3-acetylacetobutyric acid mono-diglycerol ester [3-acetylaceto-BHB mono-diglycerol ester]	
cleaved by pancreatin	3-acetylacetobutyric acid tri-diglycerol ester [3-acetylaceto-BHB tri-diglycerol ester]	
	CC(O)CC(=O)O (stereo not shown) [3-hydroxybutyric acid]	three to four
